From patent US20120165310A1, “ETHER DERIVATIVES OF BICYCLIC HETEROARYLS” (NOVARTIS AG, priority 2009, published 2012)
pIC50: −log10 of the molar value.

These molecules were tested against T1, IGF-1R (Homo sapiens, UniProt P08069) (assay: Cellular IGF-1R assay: capture ELISA (MSD) of receptor phosphorylation in Hek293 cells). Settings: Hek293-IGF1R cells, 1 h pre-incubation, 10 min IGF stimulation, pIGF1R capture ELISA.
T1 construct: expressed in transfected cells; host or cells: Hek293 (Hek293-IGF1R)
Type: cell-based
Outline: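 IC50 from 4-parameter fit of IGF1R phosphorylation, normalised to IGF-stimulated and unstimulated controls, measured by MSD capture ELISA on lysates. Hek293-IGF1R cells in starvation medium got compound 1 h (top 10 μM, 3-fold steps, 0.1% DMSO) before a 10 min pulse of 1.0 ng/μL IGF.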

T1 sequence (P08069 31-1367): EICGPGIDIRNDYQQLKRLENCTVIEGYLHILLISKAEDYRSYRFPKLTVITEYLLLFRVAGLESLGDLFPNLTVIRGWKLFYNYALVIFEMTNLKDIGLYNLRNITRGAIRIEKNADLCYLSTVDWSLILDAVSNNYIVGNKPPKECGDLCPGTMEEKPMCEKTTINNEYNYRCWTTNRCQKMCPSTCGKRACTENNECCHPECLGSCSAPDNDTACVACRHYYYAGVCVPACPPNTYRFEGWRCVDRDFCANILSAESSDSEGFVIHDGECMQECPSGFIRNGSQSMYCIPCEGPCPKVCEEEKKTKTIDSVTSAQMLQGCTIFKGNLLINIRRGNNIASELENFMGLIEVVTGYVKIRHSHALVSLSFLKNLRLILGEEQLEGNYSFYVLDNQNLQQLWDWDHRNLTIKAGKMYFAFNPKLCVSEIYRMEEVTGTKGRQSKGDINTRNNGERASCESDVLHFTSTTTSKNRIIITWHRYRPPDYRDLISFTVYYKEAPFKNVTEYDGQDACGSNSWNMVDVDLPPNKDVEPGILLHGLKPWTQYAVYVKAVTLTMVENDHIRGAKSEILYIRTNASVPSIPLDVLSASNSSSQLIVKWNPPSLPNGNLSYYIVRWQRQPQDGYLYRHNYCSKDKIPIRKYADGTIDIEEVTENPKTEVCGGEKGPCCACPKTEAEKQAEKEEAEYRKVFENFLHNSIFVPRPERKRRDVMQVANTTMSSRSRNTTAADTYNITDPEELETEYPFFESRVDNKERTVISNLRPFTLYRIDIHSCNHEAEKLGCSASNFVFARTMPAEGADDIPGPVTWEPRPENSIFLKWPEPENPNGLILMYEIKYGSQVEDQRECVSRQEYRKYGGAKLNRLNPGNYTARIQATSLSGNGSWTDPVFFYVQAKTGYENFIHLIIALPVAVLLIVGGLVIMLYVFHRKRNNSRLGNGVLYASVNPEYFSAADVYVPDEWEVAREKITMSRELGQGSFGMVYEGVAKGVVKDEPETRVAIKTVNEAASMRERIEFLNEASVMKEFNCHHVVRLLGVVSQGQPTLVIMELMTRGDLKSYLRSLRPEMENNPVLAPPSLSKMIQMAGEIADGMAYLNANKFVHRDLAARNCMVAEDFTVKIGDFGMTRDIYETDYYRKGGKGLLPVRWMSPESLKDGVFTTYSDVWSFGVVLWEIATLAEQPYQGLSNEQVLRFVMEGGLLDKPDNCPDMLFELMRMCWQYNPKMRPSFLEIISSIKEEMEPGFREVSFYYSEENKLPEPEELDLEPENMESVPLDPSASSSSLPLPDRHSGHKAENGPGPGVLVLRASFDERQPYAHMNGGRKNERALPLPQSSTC

pIC50	Compound
> 8.40	CC1(C)CCC(COc2cccc(-c3cn([C@H]4C[C@@H](CN5CCS(=O)(=O)CC5)C4)c4ncnc(N)c34)c2)O1 (single isomer, unassigned) [Example 66]
6.39	Nc1ncnc2c1c(-c1cccc(OCC3CCCCO3)c1)cn2[C@H]1C[C@@H](CN2CCC(F)(F)CC2)C1 (relative stereo) [Example 31, 7-[cis-3-(4,4-difluoro-piperidin-1-ylmethyl)-cyclobutyl]-5-[3-(tetrahydro-pyran-2-ylmethoxy)-phenyl]-7H-pyrrolo[2,3-d]pyrimidin-4-ylamine]
7.01	Nc1ncnc2c1c(-c1cccc(OCC34CCC(CC3)O4)c1)cn2C1CCC(CN2CCS(=O)(=O)CC2)CC1 (centres unmarked) [Example 111, 7-[4-(1,1-Dioxo-thiomorpholin-4-ylmethyl)-cyclohexyl]-5-[3-(7-oxa-bicyclo[2.2.1]hept-1-ylmethoxy)-phenyl]-7H-pyrrolo[2,3-d]pyrimidin-4-ylamine]
6.79	CS(=O)(=O)N1CCN(C[C@H]2CC[C@@H](n3cc(-c4cccc(OCC56CCC(CC5)O6)c4)c4c(N)ncnc43)CC2)CC1 [Example 137, 5-(3-(7-oxabicyclo[2.2.1]heptan-1-ylmethoxy)phenyl)-7-((1S,4S)-4-((4-(methylsulfonyl)piperazin-1-yl)methyl)cyclohexyl)-7H-pyrrolo[2,3-d]pyrimidin-4-amine]
6.65	Nc1ncnc2c1c(-c1cccc(OCC34CCC(CC3)O4)c1)cn2C1CC(O)(CN2CCCC2CO)C1 (single isomer, unassigned) [Example 211]
6.82	CCNC(=O)NCC1CC(n2cc(-c3cccc(OCC45CCC(CC4)O5)c3)c3c(N)ncnc32)C1 (centres unmarked) [Example 163, 1-(3-{4-amino-5-[3-(7-oxa-bicyclo[2.2.1]hept-1-ylmethoxy)-phenyl]-pyrrolo[2,3-d]pyrimidin-7-yl}-cyclobutylmethyl)-3-ethyl-urea]
7.52	CC1CCC(COc2cccc(-c3cn(C4CC(CN5CCC5)C4)c4ncnc(N)c34)c2)O1 (single isomer, unassigned) [Example 6, cis-(RR and SS)-7-(3-azetidin-1-ylmethyl-cyclobutyl)-5-[3-(5-methyl-tetrahydro-furan-2-ylmethoxy)-phenyl]-7H-pyrrolo[2,3-d]pyrimidin-4-ylamine]
7.31	CN(C)CC1(O)CC(n2cc(-c3cccc(OCC45CCC(CC4)O5)c3)c3c(N)ncnc32)C1 (centres unmarked) [Example 235, 3-{4-Amino-5-[3-(7-oxa-bicyclo[2.2.1]hept-1-ylmethoxy)-phenyl]-pyrrolo[2,3-d]pyrimidin-7-yl}-1-dimethylaminomethyl-cyclobutanol]
6.39	Nc1ncnc2c1c(-c1cccc(OCC34CCC(CC3)O4)c1)cn2[C@H]1C[C@@H](O)C1 (relative stereo) [Example 221, cis-3-{4-amino-5-[3-(7-oxa-bicyclo[2.2.1]hept-1-ylmethoxy)-phenyl]-pyrrolo[2,3-d]pyrimidin-7-yl}cyclobutanol]
6.78	CS(=O)(=O)NCC1CC(n2cc(-c3cccc(OCC45CCC(CC4)O5)c3)c3c(N)ncnc32)C1 (centres unmarked) [Example 167, N-(3-{4-amino-5-[3-(7-oxa-bicyclo[2.2.1]hept-1-ylmethoxy)-phenyl]-pyrrolo[2,3-d]pyrimidin-7-yl}-cyclobutylmethyl)-methanesulfonamide]
6.24	CC1(O)CC(n2cc(-c3cccc(OCC45CCC(CC4)O5)c3)c3c(N)ncnc32)C1 (centres unmarked) [Example 219, (E)-3-(4-amino-5-[3-(7-oxa-bicyclo[2.2.1]hept-1-ylmethoxy)-phenyl]-pyrrolo[2,3-d]pyrimidin-7-yl}-1-methyl-cyclobutanol]
7.68	Nc1ncnc2c1c(-c1cccc(OCC34CCC(CC3)O4)c1)cn2[C@H]1C[C@@H](N2CCN(CCO)CC2)C1 (relative stereo) [Example 172, 2-[4-(cis-3-{4-amino-5-[3-(7-oxa-bicyclo[2.2.1]hept-1-ylmethoxy)-phenyl]-pyrrolo[2,3-d]pyrimidin-7-yl}-cyclobutyl)-piperazin-1-yl]-ethanol]
6.49	Nc1ncnc2c1c(-c1cccc(OCC34CCC(CC3)O4)c1)cn2[C@H]1C[C@@H](CN2C(=O)c3ccccc3C2=O)C1 [Example 108, 2-(((1S,3S)-3-(5-(3-(7-oxabicyclo[2.2.1]heptan-1-ylmethoxy)phenyl)-4-amino-7H-pyrrolo[2,3-d]pyrimidin-7-yl)cyclobutyl)methyl)isoindoline-1,3-dione]
6.39	COC(=O)NC[C@]1(O)C[C@H](n2cc(-c3cccc(OCC45CCC(CC4)O5)c3)c3c(N)ncnc32)C1 [Example 218, (E)-(3-{4-Amino-5-[3-(7-oxa-bicyclo[2.2.1]hept-1-ylmethoxy)-phenyl]-pyrrolo[2,3-d]pyrimidin-7-yl}-1-hydroxy-cyclobutylmethyl)-carbamic acid methyl ester]
6.48	Nc1ncnc2c1c(-c1cccc(OCC34CCC(CC3)O4)c1)cn2[C@@H]1CCN(C2CCS(=O)(=O)CC2)C1 [Example 215, 7-[(R)-1-(1,1-dioxo-hexahydro-thiopyran-4-yl)-pyrrolidin-3-yl]-5-[3-(7-oxa-bicyclo[2.2.1]hept-1-ylmethoxy)-phenyl]-7H-pyrrolo[2,3-d]pyrimidin-4-ylamine]
6.50	Nc1ncnc2c1c(-c1cccc(OCC34CCC(CC3)O4)c1)cn2[C@@H]1CCN(C2CS(=O)(=O)C2)C1 [Example 225, 7-[(R)-1-(1,1-dioxo-thietan-3-yl)-pyrrolidin-3-yl]-5-[3-(7-oxa-bicyclo[2.2.1]hept-1-ylmethoxy)-phenyl]-7H-pyrrolo[2,3-d]pyrimidin-4-ylamine]
6.25	CSC[C@H]1C[C@@H](n2cc(-c3cccc(OCC4CCCCO4)c3)c3c(N)ncnc32)C1 (relative stereo) [Example 85, 7-(cis-3-methylsulfanylmethyl-cyclobutyl)-5-[3-(tetrahydro-pyran-2-ylmethoxy)-phenyl]-7H-pyrrolo[2,3-d]pyrimidin-4-ylamine]
6.20	Nc1ncnc2c1c(-c1cccc(OCC34CCC(CC3)O4)c1)cn2C1CC(CN2CC3CC2C[S+]3[O-])C1 (single isomer, unassigned) [Example 229]
6.65	Nc1ncnc2c1c(-c1cccc(OCC34CCC(CC3)O4)c1)cn2[C@H]1CC[C@@H](N2CCC(F)(F)CC2)CC1 [Example 116, 5-(3-(7-oxabicyclo[2.2.1]heptan-1-ylmethoxy)phenyl)-7-((1S,4S)-4-(4,4-difluoropiperidin-1-yl)cyclohexyl)-7H-pyrrolo[2,3-d]pyrimidin-4-amine]
6.55	CSC[C@H]1C[C@@H](n2cc(-c3cccc(OC[C@H]4CCCCO4)c3)c3c(N)ncnc32)C1 (relative stereo) [Example 152, 7-(cis-3-methylsuphanylmethyl-cyclobutyl)-5-{3-[(R)-1-(tetrahydro-pyran-2-yl)methoxy]-phenyl}-7H-pyrrolo[2,3-d]pyrimidin-4-ylamine]
6.60	Nc1nccn2c1c(-c1cccc(OCC3CCCCO3)c1)nc2[C@H]1C[C@@H](CN2CCS(=O)(=O)CC2)C1 (stereo partly drawn) [Example 30, 3-[cis-3-(1,1-Dioxothiomorpholin-4-ylmethyl)-cyclobutyl]-1-[3-(tetrahydro-pyran-2-ylmethoxy)-phenyl]-imidazo[1,5-a]pyrazin-8-ylamine]
7.48	CS(=O)(=O)N1CCN([C@H]2C[C@@H](n3cc(-c4cccc(OCC56CCC(CC5)O6)c4)c4c(N)ncnc43)C2)CC1 (relative stereo) [Example 171, 7-[cis-3-(4-methanesulfonyl-piperazin-1-yl)-cyclobutyl]-5-[3-(7-oxa-bicyclo[2.2.1]hept-1-ylmethoxy)-phenyl]-7H-pyrrolo[2,3-d]pyrimidin-4-ylamine]
6.64	CC(C)C(=O)N[C@H]1CC[C@@H](n2cc(-c3cccc(OCC45CCC(CC4)O5)c3)c3c(N)ncnc32)CC1 [Example 147, N-((1S,4S)-4-(5-(3-(7-oxabicyclo[2.2.1]heptan-1-ylmethoxy)phenyl)-4-amino-7H-pyrrolo[2,3-d]pyrimidin-7-yl)cyclohexyl)isobutyramide]
6.53	Nc1ncnc2c1c(-c1cccc(OCC3CCCCO3)c1)cn2[C@H]1C[C@@H](CN2CC(O)C2)C1 (relative stereo) [Example 28, 1-(cis-3-{4-amino-5-[3-(tetrahydro-pyran-2-ylmethoxy)-phenyl]-pyrrolo[2,3-d]pyrimidin-7-yl}-cyclobutylmethyl)-azetidin-3-ol]
6.54	Nc1ncnc2c1c(-c1cccc(OCC34CCC(CC3)O4)c1)cn2C1CC(O)(CN2CCC(O)C2)C1 (single isomer, unassigned) [Example 206]
8.15	NC(=O)[C@H]1CCCN1C[C@H]1C[C@H](n2cc(-c3cccc(OCC45CCC(CC4)O5)c3)c3c(N)ncnc32)C1 [Example 79, (R)-1-(trans-3-{4-amino-5-[3-(7-oxa-bicyclo[2.2.1]hept-1-ylmethoxy)-phenyl]-pyrrolo[2,3-d]pyrimidin-7-yl}cyclobutylmethyl)-pyrrolidine-2-carboxylic acid amide]
7.22 to 7.35	Nc1ncnc2c1c(-c1cccc(OCC34CCC(CC3)O4)c1)cn2C1CC(CN2CCC2)C1 (centres unmarked) [Example 23, 7-(3-azetidin-1-ylmethyl-cyclobutyl)-5-[3-(7-oxa-bicyclo[2.2.1]hept-1-ylmethoxy)-phenyl]-7H-pyrrolo[2,3-d]pyrimidin-4-ylamine]
6.32	NC[C@]1(O)C[C@H](n2cc(-c3cccc(OCC45CCC(CC4)O5)c3)c3c(N)ncnc32)C1 [Example 201]
6.80	Nc1ncnc2c1c(-c1cccc(OCC34CCC(CC3)O4)c1)cn2C1CCC(O)(CNC2CC2)CC1 [Example 117, (1R,4R)-4-(5-(3-(7-oxabicyclo[2.2.1]heptan-1-ylmethoxy)phenyl)-4-amino-7H-pyrrolo[2,3-d]pyrimidin-7-yl)-1-((cyclopropylamino)methyl)cyclohexanol]
